Each structure is given as a SMILES string.

Data on one compound can be found in BindingDB's records for doi:10.1016/j.bmcl.2009.03.136 (Central Drug Research Institute, 2009).

This assay can be described thus: Inhibition of rat intestinal alpha-glucosidase.

Take `COc1ccc(C=CC(=O)C[C@@H]2O[C@H](CO)[C@@H](O)[C@H](O)[C@H]2O)cc1OC` [(E)-4-(3,4-dimethoxyphenyl)-1-((2S,3R,4R,5S,6R)-3,4,5-trihydroxy-6-(hydroxymethyl)tetrahydro-2H-pyran-2-yl)but-3-en-2-one]: the IC50 (as a rule, the point on the concentration scale where inhibition reaches its midpoint) came to 51.5 µM. That is a double-digit micromolar value.
